Data set [1] concerns Human peripheral blood monocyte (PBMC). Briefly: Viability of PBMC by XTT reduction. Particulars: human PBMC, XTT reduction.
Data set [2] relates to AD169 strain of human cytomegalovirus. Briefly: Antiviral effect in HFF cells infected with human cytomegalovirus (AD169).
Data set [3] deals with COS7 cells. Particulars: uninfected COS7 cells, […].
Data set [4] deals with MT-2 cells. Briefly: Cytotoxicity in MT-2 cells, flow cytometry cell counts and viability. Format: cell-based, human. As for the experimental part:
(§1) MT-2 cells were incubated with drug for 72 hrs and harvested. Flow count beads (Beckman Coulter, Miami, Fla.) were added to the cell suspension followed by propidium iodide staining and analysis using flow cytometer and the 50% cytotoxic concentration (CC50) was calculated from the cell counts and viability.
On the technique in general: Flow cytometry measures light scatter and fluorescence of single cells or particles in a stream.

In data set [5] the test system is human foreskin fibroblast (HFF) cells. Briefly: Cytotoxicity in HFF cells in parallel to HSV-2 assay. Particulars: HFF cells.
In data set [6] the test system is HEK 293 cells. As to the kind of experiment: Toxicity in HEK 293 cells by trypan blue exclusion (HPV-11 example). In kind it is cell-based. As for the experimental part: (§2) An origin-containing plasmid was co-transfected with HPV-11 E1 and E2 protein expression vectors into HEK 293 cells. At 4 hr post-transfection, cells were treated with compound dilutions and the cells were incubated for 48 hr. Replication of the virus origin was detected with DpnI and exonuclease III to remove unreplicated input bacterial plasmid DNA. Remaining replicated DNA was quantified by qPCR. Toxicity was determined by trypan blue exclusion.

The test system of data set [7] is HIV-1LAI. As to the kind of experiment: HIV antiviral assay in MT-2 cells, p24 reduction. The note with it: for Selectivity Index: CC50/EC50, MT-2 cells.
Data set [8] relates to human foreskin fibroblast (HFF) cells. As to the kind of experiment: Cytotoxicity in HFF cells in parallel to HSV-1 assay. Particulars: HFF cells, in parallel to HSV-1 assay.
Data set [9] shares this test system. The note with it: uninfected HFF cells, […].
Data set [10] shares this test system. Briefly: Cytotoxicity in HFF cells in parallel to cytomegalovirus assay. Particulars: HFF cells, in parallel to cytomegalovirus assay.
The test system of data set [11] is HPV-11. Briefly: HPV-11 origin replication in HEK 293 cells, qPCR. The note with it: for EC50: HPV-11 origin replication in HEK 293 cells, 48 hr, qPCR. Format: cell-based. The protocol: as §2
(In general: Real-time PCR tracks product formation cycle by cycle.)

Data set [12] relates to Copenhagen strain of vaccinia virus. Briefly: microbe, parasite or virus in culture. Particulars: HFF cells infected with vaccinia virus (Copenhagen), 7 days, crystal violet; read-out: EC50. In kind it is cell-based.
Data set [13] relates to MAD-1 strain of JC virus. Briefly: Antiviral effect in JC virus (MAD-1) infected COS7 cells, qPCR.
In data set [14] the test system is BK virus (Gardner strain). Briefly: Antiviral effect in HFF cells infected with BK virus (Gardner strain), qPCR.
Data set [15] has as its system HIV-192US727. Briefly: Anti-HIV assay in human PBMC, supernatant reverse transcriptase activity.
Data set [16] has as its system human foreskin fibroblast (HFF) cells.
In data set [17] the test system is Human peripheral blood monocyte (PBMC).
For data set [18], the system named is Hepatitis B virus. Briefly: HBV replication in 2.2.15 cells, HBV DNA blot hybridization.
For data set [19], the system named is 2.2.15 cells. Briefly: Cytotoxicity in 2.2.15 cells by neutral red uptake. The note with it: 2.2.15 cells, neutral red uptake.
Data set [20] in a line: Antiproliferative activity, neutral red, normal human fibroblasts.
Data set [21] has as its system HPV-16. Briefly: HPV-16 origin replication in HEK 293 cells, qPCR. Format: cell-based. The protocol: (§3) An origin-containing plasmid was co-transfected with HPV-16 E1 and E2 protein expression vectors into HEK 293 cells. At 4 hr post-transfection, cells were treated with compound dilutions and the cells were incubated for 48 hr. Replication of the virus origin was detected with DpnI and exonuclease III to remove unreplicated input bacterial plasmid DNA. Remaining replicated DNA was quantified by qPCR. Toxicity was determined by trypan blue exclusion.

The conditions of data set [22]: African green monkey.
Data set [23] is described as follows: Cytotoxicity in MT-2 cells, flow cytometry cell counts and viability. In kind it is cell-based, human. The note with it: human; MT-2 cells, 72 hrs. As for the experimental part: as §1
The nature of data set [24]: Toxicity in HEK 293 cells by trypan blue exclusion (HPV-11 example). In kind it is cell-based. The note with it: human. As for the experimental part:
as §2

Data set [25] in a line: Cytotoxicity in HFF cells in parallel to HSV-1 assay. Particulars: human.
The conditions of data set [26]: human.
The nature of data set [27]: Cytotoxicity in HFF cells in parallel to cytomegalovirus assay. Particulars: human.
Data set [28] in a line: in vitro. Particulars: human.
Data set [29] is described as follows: Cytotoxicity in 2.2.15 cells by neutral red uptake. Particulars: human.
A short description of data set [30]: Toxicity in primary human keratinocyte raft cultures by histology.
Data set [31] can be described thus: Toxicity in HEK 293 cells by trypan blue exclusion (HPV-16 example). Format: cell-based. Particulars: human. As for the experimental part:
as §3

The nature of data set [32]: Effect of oral compounds on body weight in Balb-c mice. Format: in vivo. The protocol:
Compounds were administered at the indicated doses by oral gavage daily for 5 days. Weights measured before and on day 6 after 5 doses.

Data set [33] concerns HPV-18. Briefly: Antiviral effect in HPV-18 infected primary human keratinocyte rafts, qPCR.
For data set [34], the system named is Hela (HPV-18). Briefly: Antiproliferative activity, neutral red, Hela cervical cancer cells. The note with it: Homo sapiens, 96 h, read-out: Cytotoxic concentration 50% (CC50) Hela (HPV-18).
The subject of data set [35] is Caski (HPV-16). As to the kind of experiment: Antiproliferative activity, neutral red, Caski cervical cancer cells.
Where [36] appears, read: HFF cells infected with human cytomegalovirus (AD169), 14 days, crystal violet.
Setting [37] is: MT-2 cells, 72 hrs, read-out: CC50.
The mark [38] stands for this setting: HIV-1 infected MT-2 cells, p24 reduction, four days.
Setting [39] is: COS7 cells infected with JC virus (MAD-1), 7 days, qPCR.
The mark [40] stands for this setting: HFF cells infected with BK virus (Gardner strain), 14 days, qPCR.
Where [41] appears, read: HIV-192US727 infected human PBMC, 7 days, supernatant reverse transcriptase activity.

Where two headings read alike, the source gives them in different places. A value given as a limit tells only on which side of the number the result lay.

Regarding `CCCCCCCCCCCCCCCCCCOC[C@H](COP(=O)(CO[C@H](CO)Cn1ccc(N)nc1=O)OCc1ccccc1)OCc1ccccc1` (stereo partly drawn) [Compound 231, benzyl 1-O-octadecyl-2-O-benzyl-sn-glyceryl 1-(S)-[3-hydroxy-2-(phosphonomethoxy)propyl]cytosine], the CC50 in [1] is 19 µM; in data set [3] it was 62.6 µM; in data set [4] (setting [37]), 22 ± 3 µM; in [5] it was 34.8 µM; in data set [6] it was greater than 10 µM; in [8] it was 88.3 µM. For the same compound, the figures for the CC50 in [9], in data set [10] and in data set [16] were 13.3 µM, 19 µM and greater than 100 µM, respectively. Besides, the EC50 (commonly the midpoint of the concentration-response curve) in [2] (setting [36]) is less than 0.03 µM; in [7] (setting [38]) it was 2200 ± 2100 nM; in [11] it was 1.56 µM; in data set [12], 0.23 µM; in [13] (setting [39]), greater than 20 µM; in data set [14] (setting [40]), less than 0.03 µM. In [15] (setting [41]), this compound returned an EC50 of less than 0.3 µM. Moreover, the “Selectivity Index” value in [7] was 10.

Turning to `CCCCCCCCCCCCCCCCCCOC[C@H](COP(=O)(CO[C@H](CO)Cn1cnc2c(N)ncnc21)OCc1ccccc1)OCc1ccccc1` (stereo partly drawn) [Compound 230, benzyl 1-O-octadecyl-2-O-benzyl-sn-glyceryl 9-(S)-[(3-hydroxypropyl-2-phosphonomethoxy)propyl]adenine], the EC50 was less than 0.03 µM in [2] (setting [36]); 50 ± 30 nM in [7] (setting [38]); 0.56 µM in data set [11]; 0.06 µM in [12]; greater than 4 µM in data set [13] (setting [39]); 0.06 µM in [14] (setting [40]). In data set [15], this compound registered an EC50 of less than 0.1 µM. In addition, the CC50 in data set [3] was 18.4 µM; in data set [4] (setting [37]), 19 ± 2.6 µM; in data set [5] it was 37.1 µM; in data set [6] it was greater than 10 µM; in data set [8], 82.2 µM; in [17], 0.55 µM. The CC50 in [9] is 19.6 µM; in data set [10], 3.72 µM; in [16], 97.5 µM. The “Selectivity Index” value in data set [7] is recorded as 380.

For the compound `CCCCCCCCCCCCCCCCCCOCCOP(=O)(CO[C@H](C)Cn1cnc2c(N)ncnc21)Oc1ccccc1` (stereo partly drawn) [Compound 92, phenyl octadecyloxyethyl 9-(R)-[(2-phosphonomethoxy)propyl]adenine], the EC50 in data set [18] (HBV replication in 2.2.15 cells, 7 days treatment, HBV DNA blot hybridization) was 7.3 µM; in [15] (setting [41]) it was less than 0.005 µM. The CC50 worked out at 24.1 µM in data set [1] and 68 µM in data set [19].

`CCCCCCCCCCCCCCCCCCOCCOP(=O)(COCCn1cnc2c(=O)[nH]c(N)nc21)OCc1ccccc1` (racemic) [Compound 1, benzyl octadecyloxyethyl 9-(2-phosphonomethoxyethyl)guanine] yielded a CC50 at 4 days in [20] of 15 µM. In addition, the EC50 in data set [18] (Hepatitis B virus, 168 h) was 0.44 µM; in data set [21] (HEK293, HPV-16 origin replication in HEK 293 cells, 48 hr, qPCR, read-out: EC50), 0.2 µM; in data set [2] (Human betaherpesvirus 5, AD169, HFF, 336 h), less than 0.03 µM; in [7] (Human immunodeficiency virus 1, MT2, 96 h), less than 0.01 nM; in data set [11] (HEK293), 0.49 µM; in data set [13] (JC polyomavirus, COS-7, 168 h), 0.07 µM. Moreover, the EC50 in data set [14] (Betapolyomavirus hominis, HFF, 336 h) is less than 0.03 µM; in data set [33] (Homo sapiens, Keratinocyte), 0.21 µM; in [15] (Human immunodeficiency virus 1, PBMC, 168 h), less than 0.01 µM. Further, the “Selectivity Index” value in data set [18] (hepatitis B virus, 2.2.15 cells) is recorded as greater than 226; in data set [21] (HPV-16, HEK 293 cells), greater than 50; in [2] (human cytomegalovirus (AD169), HFF cells), greater than 1717; in data set [7], greater than 3600; in [11] (HPV-11, HEK 293 cells), greater than 204; in [13] (JC virus (MAD-1), COS7 cells) it was 911. In addition, the “Selectivity Index” value is on record as greater than 102 in [14] (BK virus (Gardner strain), HFF cells); 48 in data set [33] (HPV-18 keratinocyte rafts); greater than 4.0 in data set [15] (HIV-192US727, human PBMC). Also, the CC50 at 7 days in data set [22] is 63.8 µM; in data set [29] it was greater than 100 µM. The CC50 in [4] (Homo sapiens, MT2, 72 h, read-out: CC50, 50% Cytotoxic concentration MT2 cells T cell leukemia) was 0.036 ± 0.04 µM; in [28], 0.04 µM; in [30], 10 µM; in data set [31], greater than 10 µM; in data set [34], 0.009 µM; in data set [35] (Homo sapiens, Ca-Ski, 96 h, read-out: Cytotoxic concentration 50% (CC50) Caski (HPV-16)), 0.004 µM. The same compound returned a CC50 at 72 h in [23] of 0.036 ± 0.04 µM. Further, in [24], the CC50 at 48 h is greater than 100 µM. Besides, the CC50 at 3 days in data set [25] was greater than 100 µM. Also, the CC50 at 14 days worked out at 3.06 µM in data set [26] and 51.5 µM in data set [27]. Besides, the “body weight Day 6” value in data set [32] (4 mg/kg/day oral gavage daily for 5 days) is reported as 18.42 ± 1.00 (3). The “body weight Day 0” value in [32] (4 mg/kg/day oral gavage, before dosing) is reported as 18.63 ± 0.728 (3). The “fold more effective in reducing viable cell number in the cervical cancer lines than in normal, non-transformed human fibroblasts” value in data set [35] (cervical cancer lines (Caski, Hela) vs HFF) is recorded as 3,750 fold.

Values taken from US10076533B2, “Acyclic nucleoside phosphonate diesters” (The Regents of the University of California, priority 2013, dated 2018).
